Data set [1] deals with T1, CitO-wt (Enterococcus faecalis, UniProt Q82YV4). It counts as biochemical. Conditions: for Effect on CitO-PcitH−CL complex formation: EDTA-treated CitO-wt.
In data set [2] the target is T1, CitO-wt. It counts as binding. As for the experimental part:
The assay was carried out as described earlier (Pagliai et al., [2010]). Briefly, CitO (10 μM), in presence or absence of increasing concentrations of citrate or malate (the latter was used as a negative control), was placed (in duplicate) into 96-well plates (Bio-Rad, Hercules, CA) and heated from 25 to 80°C at the rate of 1°C per min. The unfolding of the protein was monitored by the increase in fluorescence of the fluorophore SYPRO Orange (Invitrogen). Fluorescence intensities were plotted against temperature for each sample well and transition curves were fitted with the Boltzmann equation using Origin 8 software (Northampton, MA). The midpoint of each transition curve was calculated and values obtained in presence of the ligand compared to those calculated for CitO in absence of the ligand.

Data set [3] deals with TM0439. Also on record: method as in Zheng et al., 2009. Conditions: ref Zheng et al., 2009; cited from earlier work.
Data set [4] deals with T2, CitO-L214A L214A (Enterococcus faecalis), ORF:7f2fe6d0.
T2 sequence: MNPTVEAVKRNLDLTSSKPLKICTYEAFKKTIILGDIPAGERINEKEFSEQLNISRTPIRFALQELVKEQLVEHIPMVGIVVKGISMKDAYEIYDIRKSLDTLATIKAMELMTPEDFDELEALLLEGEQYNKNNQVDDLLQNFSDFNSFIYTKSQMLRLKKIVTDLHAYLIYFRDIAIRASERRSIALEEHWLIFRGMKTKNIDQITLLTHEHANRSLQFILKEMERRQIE
The data set is described as follows: EMSA. A general note: In EMSA bound probe runs differently from free probe, usually more slowly.

For data set [5], the target named is T1, CitO-wt. The data set is described as follows: Isothermal titration calorimetry of CitO-wt with citrate. It counts as binding. Here is the method: Measurements were performed on a VP-Microcalorimeter (MicroCal, Northampton, MA) at 25°C. The proteins were thoroughly dialyzed against 10 mM Tris (pH 8.0), 500 mM NaCl, and 2.5% glycerol. A solution of citrate (1 mM, pH 8.0) was directly prepared in dialysis buffer. Each titration involved a series of 3 μl injections of the effector molecule into the protein solution. The mean enthalpies measured from injection of the ligand in the buffer were subtracted from raw titration data prior to data analysis with Origin 8 software (MicroCal). Titration curves were fitted by a nonlinear least squares method to a function for the binding of a ligand to a macromolecule (Wiseman et al., [1989]). From the curve thus fitted, the parameters ΔH (reaction enthalpy), KA (binding constant, KA = 1/KD), and N (reaction stoichiometry) were determined. From the values of KA and ΔH, the changes in free energy (ΔG) and entropy (ΔS) were calculated with the following equation: ΔG = −RT lnKA = ΔH−TΔS; where R is the universal molar gas constant and T is the absolute temperature.

In data set [6] the target is T3, CitO-Q64A (Enterococcus faecalis, UniProt Q82YV4, Q64A). As to the kind of experiment: biochemical. It counts as binding.
Data set [7] addresses T4, CitO-H74A (Enterococcus faecalis, UniProt Q82YV4, H74A). The data set is described as follows: biochemical. Format: binding.
For data set [8], the target named is CitO-R97A. It counts as binding. Conditions: ITC, 25°C, ni = no interaction.
Data set [9] deals with T5, CitO-F143A (Enterococcus faecalis, UniProt Q82YV4, F143A). The data set is described as follows: biochemical. Format: binding.
Data set [10] has as its target CitO-H191A. It counts as binding. Conditions: ITC, 25°C, ni = no interaction.
In data set [11] the target is T6, CitO-L214A (Enterococcus faecalis, UniProt Q82YV4, L214A). As to the kind of experiment: biochemical. It counts as binding.
Data set [12] has as its target T3, CitO-Q64A. It counts as binding. Conditions: DSF.
Data set [13] has as its target T4, CitO-H74A. It counts as binding. Conditions: DSF.
For data set [14], the system named is CitO-R97A. It counts as binding. Conditions: DSF, citrate up to 1 mM.
The target of data set [15] is T5, CitO-F143A. Format: binding. Conditions: DSF, 50 μM citrate, Tm = 50°C without citrate.
In data set [16] the test system is CitO-H191A. Format: binding. Conditions: DSF, citrate up to 1 mM.
In data set [17] the target is T6, CitO-L214A. It counts as binding. Conditions: DSF, only at 50 μM citrate or higher.
The target of data set [18] is T3, CitO-Q64A. Format: biochemical. Conditions: EMSA, 5 mM citrate.
Data set [19] deals with T4, CitO-H74A. It counts as biochemical. Conditions: EMSA, 5 mM citrate.
For data set [20], the system named is CitO-R97A. Format: biochemical. Conditions: EMSA, 5 mM citrate.
For data set [21], the target named is T5, CitO-F143A. Format: biochemical. Conditions: EMSA, 5 mM citrate.
Data set [22] relates to CitO-H191A. It counts as biochemical. Conditions: EMSA, 5 mM citrate.
Data set [23] addresses T6, CitO-L214A. Format: biochemical.
The test system of data set [24] is PcitCL promoter activity. As to the kind of experiment: β-galactosidase assay, PcitCL fusion to lacZ in JHB14 strains expressing CitO variants. Format: cell-based, E. faecalis. Conditions: for β-galactosidase activity: LB with 17 mM citrate.
For data set [25], the system named is CitO. Also on record: method as in Blancato et al., 2008. Conditions: in vivo and in vitro experiments; ref Blancato et al., 2008; cited from earlier work.
The target of data set [26] is CitO, regulator of citrate metabolism from Enterococcus faecalis (Enterococcus faecalis). As to the kind of experiment: SEC; Superdex 75; 200 ul of 28.4 uM CitO, with or without 1 mM citrate (pH 8.0), 30 min on ice before injection; 50 mM Tris pH 7.6, 300 mM NaCl, 5% glycerol; 4°C; mass from a standard curve of protein standards. (In gel filtration, larger molecules generally elute earlier.)

Where [27] appears, read: EMSA, 0.2 μM CitO-wt, Me2+ 2 mM, absence of citrate.
[28] abbreviates: EMSA, Me2+ 2 mM together with 5 mM citrate.
The mark [29] stands for this setting: DSF, CitO-wt, ligand added, without ligand Tm1 = 43°C, Tm2 = 58°C.

Read-outs that look alike come from different tables or passages of the source.

As to `[Ca+2]` [Ca^2+], in data set [1] (setting [27]), the “Effect on binding of CitO to PcitH−CL” value was “did not modify the binding”.
Regarding succinate, the “Shift in the Tm2” value in data set [2] is “did not show a shift in the Tm2”.
As for `[Zn+2]` [Zn^2+], the “Effect on binding of CitO to PcitH−CL” value in data set [1] (setting [27]) was “decreased the binding”. Moreover, the “Effect on CitO-PcitH−CL complex formation” value in data set [1] (setting [28]) is on record as “increased the stability of the larger CitO-PcitH−CL complexes”. For the same molecule, the KD result in data set [3] is given as “nanomolar range”.
Turning to `O=C(O)CC(C(=O)O)C(O)C(=O)O` (stereo not shown) [isocitrate], the “Shift in the Tm2” value in [2] (setting [29]) was “did not show a shift in the Tm2”.
Turning to “GGTATACGTTCATTATAGAAAAAACCGTTAAAAAACCTAGTGAAAACACTAGCTCAGATTGTTCTTTTATTGTTTATTTTGTGAAAAAAACTCTGTAAACATTGGTATATAAGCATTTATCAGCCGTTAAGATTCTATTAATATTATATTAAGTTATTAATAAGAATTTGATTGTTGAATTGTTTTTTTGATGTTCTTTTTGTTTTAGGCTATTTATTCTCTGCGAAAGTTTGTATATTCTCACAC (double strand) [PcitH-CL]”, the binding entry in data set [4] is “binds”.
As to `[Mg+2]` [Mg^2+], the “Effect on binding of CitO to PcitH−CL” value in data set [1] (setting [27]) was “did not modify the binding”.
In the case of `O=C(O)CN(CCN(CC(=O)O)CC(=O)O)CC(=O)O` [EDTA], the “Effect on binding of CitO to PcitH−CL” value in data set [1] is recorded as “decreased the binding”.
As for `[Ni+2]` [Ni^2+], the “Effect on binding of CitO to PcitH−CL” value in [1] (setting [27]) is given as “decreased the binding”. Further, the “Effect on CitO-PcitH−CL complex formation” value in data set [1] (setting [28]) is reported as “increased the stability of the larger CitO-PcitH−CL complexes”. Further, the KD entry in data set [3] was “nanomolar range”.
Turning to `O=C(O)CC(O)(CC(=O)O)C(=O)O` [citrate], the dissociation constant Kd (as a rule, a measure of binding affinity in units of concentration) in data set [5] was 1200 ± 200 nM; in data set [6] it was 770 ± 100 nM; in data set [7], 820 ± 40 nM; in data set [9], 440 ± 80 nM; in data set [11], 1200 ± 200 nM. The ΔG in data set [5] (ITC, CitO-wt) was -7.9834 kcal/mol; in data set [6] (ITC, CitO-Q64A), -8.34 kcal/mol; in data set [7] (ITC, CitO-H74A), -8.4346 kcal/mol; in [9] (ITC, CitO-F143A) it was -8.6857 kcal/mol; in data set [11] (ITC, CitO-L214A) it was -8.07 kcal/mol. In addition, the ΔH worked out at 6.122 kcal/mol in data set [5] (ITC, CitO-wt); 6.724 kcal/mol in data set [6] (ITC, CitO-Q64A); 6.5 kcal/mol in [7] (ITC, CitO-H74A); 16.02 kcal/mol in [9] (ITC, CitO-F143A); 5.78 kcal/mol in data set [11] (ITC, CitO-L214A). The “ΔS (entropy change)” value in [5] (ITC, CitO-wt) is given as 47.3 cal/mol/deg. In addition, the KD result in data set [8] is “did not interact and ni^*”; in data set [10] it was “did not interact and ni^*”. The TΔS in data set [11] (ITC, CitO-L214A) was 46.5 cal/mol/deg. For the same molecule, the “Shift in the Tm2” value in [2] (setting [29]) is reported as “induced a shift in the Tm2”. Moreover, the “Shift in Tm” value in data set [12] (5 μM citrate) is “clear shift in Tm”. For the same molecule, the Thermal stability entry in data set [12] (50 μM citrate) is “higher stability”. Moreover, the “Interaction with citrate in solution” value in [13] is “still able to interact with citrate”. Moreover, the “Denaturation temperature in presence vs absence of citrate” value in data set [14] and in [16] was “denatured at similar temperature” throughout. In addition, the Tm (commonly the temperature at which the thermal transition is half complete) in data set [15] was 57 °C. The “ΔTm (increase in Tm2)” value in [17] worked out at 4 °C. In data set [1] (EMSA, CitO-wt, citrate up to 5 mM), the “Stability of the CitO-DNA complexes” value is recorded as “increased”. Besides, the “Effect on CitO-PcitH−CL complex formation” value in [1] (EMSA, 5 mM citrate alone) was “improved the formation of intermediate complexes”. In addition, the “Ability to bind the DNA probe in presence of citrate” value in [18] is given as “comparable to the wild type”. Besides, the “Effect on formation of protein:DNA complexes” value in [19], in data set [20] and in data set [22] was “did not modify the formation of protein:DNA complexes” throughout. Further, the “Shift of protein:DNA complex” value in data set [21] is “strong shift”. Further, the “Effect on binding to PcitH−CL” value in data set [23] is “increased the binding”. The “Increment in the β-galactosidase activity” value in [24] came out at 64 fold. The β-galactosidase activity result in [24] (CitO-H191A strain) is reported as “very low β-galactosidase activity”; in [24] (CitO-R97A strain), “very low β-galactosidase activity”; in data set [24] (strain carrying CitO-H74A), “reduced β-galactosidase activity”; in [24] (strain containing CitO-F143A), “induced”; in data set [24] (strain containing CitO-Q64A) it was “induced”; in data set [24] (strain containing CitO-wt) it was “induced”. For the same molecule, the “Activation of CitO” value in data set [25] is “specifically activated only by citrate”.
For “CitO, regulator of citrate metabolism from Enterococcus faecalis (natural protein)”, the stoichiometry N (commonly a count of units in the complex or per binding partner) in data set [26] came out at 2.
On to `O=C(O)CC(O)C(=O)O` (stereo not shown) [malate], for which the “Shift in the Tm2” value in data set [2] (setting [29]) was “did not show a shift in the Tm2”.
With `[Mn+2]` [Mn^2+], in data set [1] (setting [27]), the “Effect on binding of CitO to PcitH−CL” value is recorded as “did not modify the binding”.
